Here are results for 24 compounds from patent US12240862B2, “Inhibitors of peptidylarginine deiminases” (Gilead Sciences, Inc., priority 2020, dated 2025).

One experiment concerns the target T1, human PAD4 (Homo sapiens, UniProt Q9UM07).
T1 construct: human PAD4 (NM_012387), A2P663, was PCR amplified; His-SUMO (N, cleaved yes); made in house; host or cells: E. coli BL21(DE3)
As to the kind of experiment: In vitro PAD4 BAEE biochemical assay. As to conditions: human PAD4, BAEE substrate; 5 nM PAD4, 2 mM calcium chloride, 3 mM BAEE; geometric mean of multiple experiments. Summed up:
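Tag-free recombinant hPAD4 (5 nM), 2 mM CaCl2, 3 mM BAEE, 50 mM MOPS pH 7.6, 2 mM DTT; 30 min compound preincubation, 2 h reaction, all 25 °C. EDTA quench; ammonia read via o-phthalaldehyde amine coupling, 1 h.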

Experiment [1] relates to models of chronic and acute inflammatory diseases. Particulars: MRL/lpr lupus, hemorrhagic shock in rats, CLP sepsis, DSS-colitis, ApoE-/- arteriosclerosis, diabetic wound healing models; cited from earlier work.
In the next experiment the test system is murine CIA model. As to conditions: prophylactic treatment; cited from earlier work.

T1 sequence (Q9UM07 2-663): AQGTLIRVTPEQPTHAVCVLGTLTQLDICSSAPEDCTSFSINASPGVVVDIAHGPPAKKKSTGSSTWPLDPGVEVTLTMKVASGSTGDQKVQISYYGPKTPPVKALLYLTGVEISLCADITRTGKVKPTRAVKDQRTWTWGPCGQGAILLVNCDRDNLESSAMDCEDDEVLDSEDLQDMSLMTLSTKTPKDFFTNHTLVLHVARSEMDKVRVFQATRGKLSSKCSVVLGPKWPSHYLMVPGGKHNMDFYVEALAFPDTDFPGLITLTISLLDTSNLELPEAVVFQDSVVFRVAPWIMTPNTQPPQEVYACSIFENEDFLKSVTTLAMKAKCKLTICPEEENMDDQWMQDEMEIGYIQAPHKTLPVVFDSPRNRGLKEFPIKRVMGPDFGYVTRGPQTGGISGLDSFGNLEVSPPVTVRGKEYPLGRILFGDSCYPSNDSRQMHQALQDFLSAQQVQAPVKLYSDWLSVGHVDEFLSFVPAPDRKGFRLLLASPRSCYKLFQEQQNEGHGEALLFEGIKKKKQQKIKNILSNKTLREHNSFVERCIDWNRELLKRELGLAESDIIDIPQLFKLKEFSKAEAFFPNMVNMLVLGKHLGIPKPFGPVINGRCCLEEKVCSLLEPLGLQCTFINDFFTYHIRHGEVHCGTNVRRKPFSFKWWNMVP

In the case of `COc1cc(C(=O)N2CCC[C@@H](N)C2)cc2nc(-c3cc4ccc(O[C@@H](C)C(=O)N(C)C)nc4n3CC3CC3)c(C)n12` [Example 617, (2~{S})-2-[2-[7-[(3~{R})-3-aminopiperidine-1-carbonyl]-5-methoxy-3-methylimidazo[1,2-a]pyridin-2-yl]-1-(cyclopropylmethyl)pyrrolo [2,3-b]pyridin-6-yl]oxy-~{N},~{N}-dimethylpropanamide], on human PAD4, the IC50 came to 6.98 µM.
On the same count and under the same terms, with `CNC(=O)[C@@H](C)Oc1ccc2cc(-c3nc4cc(C(=O)N5CCC[C@@H](N)C5)cc(OC)n4c3C)n(CC3CC3)c2n1` [Example 618] the figure was 0.401 µM.
With `COc1cc(C(=O)N2CCC[C@@H](N)C2)cc2nc(-c3cc4ccc(O[C@H](C)C(=O)N(C)C)nc4n3CC3CC3)c(C)n12` [Example 619, (2~{R})-2-[2-[7-[(3~{R})-3-aminopiperidine-1-carbonyl]-5-methoxy-3-methylimidazo [1,2-a]pyridin-2-yl]-1-(cyclopropylmethyl)pyrrolo [2,3-b]pyridin-6-yl]oxy-~{N},~{N}-dimethylpropanamide], at human PAD4, the IC50 was 0.686 µM.
On the same count and under the same terms, then `COc1cc(C(=O)N2CCC[C@@H](N)C2)cc2nc(-c3cc4ccc(OCC(=O)N(C)C)nc4n3CC3CC3)c(C)n12` [Example 620, 2-[2-[7-[(3~{R})-3-aminopiperidine-1-carbonyl]-5-methoxy-3-methylimidazo[1,2-a]pyridin-2-yl]-1-(cyclopropylmethyl)pyrrolo[2,3-b]pyridin-6-yl] oxy-~{N},~{N}-dimethylacetamide], with 1.19 µM.
As for `COc1cc(C(=O)N2CCC[C@@H](N)C2)cc2nc(-c3cc4ccc(OCC(N)=O)nc4n3CC3CC3)c(C)n12` [Example 621, 2-[2-[7-[(3~{R})-3-aminopiperidine-1-carbonyl]-5-methoxy-3-methylimidazo[1,2-a]pyridin-2-yl]-1-(cyclopropylmethyl)pyrrolo [2,3-b]pyridin-6-yl]oxyacetamide], the IC50 at human PAD4 is 1.02 µM.
The same measure, in the same setting: then `CNC(=O)COc1ccc2cc(-c3nc4cc(C(=O)N5CCC[C@@H](N)C5)cc(OC)n4c3C)n(CC3CC3)c2n1` [Example 622, 2-[2-[7-[(3~{R})-3-aminopiperidine-1-carbonyl]-5-methoxy-3-methylimidazo[1,2-a]pyridin-2-yl]-1-(cyclopropylmethyl)pyrrolo [2,3-b]pyridin-6-yl] oxy-~{N}-methylacetamide], with 0.894 µM; and `COc1cc(C(=O)N2CCC[C@@H](N)C2)cc2nc(-c3cc4ccc(OC5CCN(C)C5=O)nc4n3CC3CC3)c(C)n12` (stereo partly shown) [Example 623, 3-[2-[7-[(3~{R})-3-aminopiperidine-1-carbonyl]-5-methoxy-3-methylimidazo[1,2-a]pyridin-2-yl]-1-(cyclopropylmethyl)pyrrolo [2,3-b]pyridin-6-yl]oxy-1-methylpyrrolidin-2-one], with 0.131 µM.
On the same count and under the same terms, with `COc1cc(C(=O)N2[C@H]3CC[C@@H]2[C@H](N)C3)cc2nc(-c3cc4ccc(OCC(=O)N(C)C)nc4n3CC3CC3)c(C)n12` [Example 624, 2-[2-[7-[(1~{R},2~{R}, 4~{S})-2-amino-7-azabicyclo[2.2.1]heptane-7-carbonyl]-5-methoxy-3-methylimidazo[1,2-a]pyridin-2-yl]-1-(cyclopropylmethyl)pyrrolo [2,3-b]pyridin-6-yl] oxy-~{N},~{N}-dimethylacetamide] the figure was 0.114 µM.
Same read-out and setting: then `COc1cc(C(=O)N2[C@H]3CC[C@@H]2[C@H](N)C3)cc2nc(-c3cc4ccc(OCc5ccccc5)nc4n3CC3CC3)c(C)n12` [Example 627, [(1~{R},2~{R},4~{S})-2-amino-7-azabicyclo [2.2.1]heptan-7-yl]-[2-[1-(cyclopropylmethyl)-6-phenylmethoxypyrrolo[2,3-b]pyridin-2-yl]-5-methoxy-3-methylimidazo[1,2-a]pyridin-7-yl]methanone], with 3.36 µM; and `COc1cc(C(=O)N2[C@H]3CC[C@@H]2[C@H](N)C3)cc2nc(-c3cc4ccc(Oc5ccccc5)nc4n3CC3CC3)c(C)n12` [Example 628, [(1~{R},2~{R},4~{S})-2-amino-7-azabicyclo [2.2.1]heptan-7-yl]-[2-[1-(cyclopropylmethyl)-6-phenoxypyrrolo[2,3-b]pyridin-2-yl]-5-methoxy-3-methylimidazo[1,2-a]pyridin-7-yl]methanone], with 0.553 µM.
Regarding `COc1ccc2cc(-c3nc4cc(C(=O)N5CCC[C@@H](N)C5)cc(OC)n4c3C)n(CC3CC3)c2n1` [Example 629, [(3~{R})-3-aminopiperidin-1-yl]-[2-[1-(cyclopropylmethyl)-6-methoxypyrrolo[2,3-b]pyridin-2-yl]-5-methoxy-3-methylimidazo[1,2-a]pyridin-7-yl]methanone], at human PAD4, the IC50 was 2.27 µM.
On the same count and under the same terms, with `COc1cc(C(=O)N2CCC[C@@H](N)C2)cc2nc(-c3cc4ccc(O[C@@H](C)C(=O)NC56CC(F)(C5)C6)nc4n3CC3CC3)c(C)n12` [Example 631, (2~{S})-2-[2-[7-[(3~{R})-3-aminopiperidine-1-carbonyl]-5-methoxy-3-methylimidazo[1,2-a]pyridin-2-yl]-1-(cyclopropylmethyl)pyrrolo[2,3-b]pyridin-6-yl]oxy-~{N}-(3-fluoro-1-bicyclo[1.1.1]pentanyl)propanamide] the figure was 10 µM; with `COc1cc(C(=O)N2C[C@H](N)[C@@H]3CC[C@H]2C3)cc2nc(-c3cc4ccc([C@@H](C)NC(=O)C56CC(C#N)(C5)C6)nc4n3CC3CC3)c(C3CC3)n12` [Example 632, N-((R)-1-(2-(7-((1S,4R,5R)-4-amino-2-azabicyclo[3.2.1]octane-2-carbonyl)-3-cyclopropyl-5-methoxyimidazo[1,2-a]pyridin-2-yl)-1-(cyclopropylmethyl)-1H-pyrrolo[2,3-b]pyridin-6-yl)ethyl)-3-cyanobicyclo [1.1.1]pentane-1-carboxamide], 0.14 µM.
On to `NC(=O)[C@H](CCCN=C(N)CCl)NC(=O)c1ccccc1` [chloroamidine], for which the “clinical, inflammatory, histopathological and mechanical end points, NETosis, outcome” value in experiment [1] was “reduction of clinical, inflammatory, histopathological and mechanical end points”. The “clinical and histological scores” value in the experiment on murine CIA model was “improvement of clinical and histological scores”.
As for “(2~{S})-2-[2-[7-[(3~{R})-3- aminopiperidine-1- carbonyl]-5-methoxy-3- methylimidazo[1,2- a]pyridin-2-yl]-1- (cyclopropylmethyl)pyrrolo [2,3-b]pyridin-6-yl] oxy-~{N}- methylpropanamide [Example 630]”, the IC50 on human PAD4 came to 9.4 µM.
In the case of GSK199, the “clinical and histological scores” value in the experiment on murine CIA model is “improvement of clinical and histological scores”.
Consider YW3-56, for which the “clinical, inflammatory, histopathological and mechanical end points, NETosis, outcome” value in experiment [1] was “reduction of clinical, inflammatory, histopathological and mechanical end points”.
On to “[(1~{R},2~{R},4~{S})-2- amino-7- azabicyclo[2.2.1]heptane-7- carbonyl]- 5-methoxy-3-methylimidazo [1,2-a]pyridin-2-yl]-1- (cyclopropylmethyl)pyrrolo [2,3-b]pyridin-6-yl]ethyl]-3- hydroxybicyclo[1.1.1] pentane-1-carboxamide [Example 87]”, for which the IC50 on human PAD4 worked out at 0.0286 µM.
Same read-out and setting: with “[(1~{R},2~{R},4~{S})-2- amino-7-azabicyclo [2.2.1]heptan-7-yl]-[2-[1- (cyclopropylmethyl)-6-(6- hydroxy-2-methylpyridin- 3-yl)pyrrolo[2,3-b] pyridin-2-yl]-5-methoxy-3- methylimidazo[1,2-a] pyridin-7-yl]methanone [Example 563]” the figure was 0.106 µM; with “[(1~{R},2~{R},4~{S})-2- amino-7-azabicyclo [2.2.1]heptan-7-yl]-[2-[6- ethyl-1-[(1~{R},2~{R})-2- phenylcyclopropyl]methyl] pyrrolo[2,3-b] pyridin-2-yl]-5-methoxy-3- methylimidazo[1,2-a] pyridin-7-yl]methanone [Example 492]”, 2.09 µM; with “~{N}-[2-[7-[(3~{S}, 4~{R})-3-amino-4- hydroxypiperidine-1- carbonyl]-3-ethyl- 5-methoxyimidazo[1,2- a]pyridin-2-yl]-1- (cyclopropylmethyl)pyrrolo [2,3-b]pyridin-6-yl]-~{N}- (difluoromethyl) methanesulfonamide [Example 400]”, 0.847 µM.
Regarding “~{N}-[(1~{R})-1-[2-[7- [(1~{R},2~{R},4~{S})-2- amino-7- azabicyclo[2.2.1]heptane-7- carbonyl]- 5-methoxy-3-methylimidazo [1,2-a]pyridin-2-yl]-1- (cyclopropylmethyl)pyrrolo [2,3-b]pyridin-6-yl]ethyl]- 3,3-dimethylcyclobutane-1- carboxamide [Example 71]”, the half-maximal inhibitory concentration (IC50) on human PAD4 is 0.0634 µM.
Still for that read-out and setting: then “~{N}-[(1~{R})-1-[2-[7- [(1~{R},2~{R},4~{S})-2- amino-7- azabicyclo[2.2.1]heptane- 7-carbonyl]-3-cyclopropyl- 5-methoxyimidazo [1,2-a]pyridin-2-yl]-1-(1- bicyclo[1.1.1] pentanylmethyl)pyrrolo [2,3-b]pyridin-6-yl]ethyl]- 3-fluorobicyclo[1.1.1] pentane-1-carboxamide [Example 487]”, with 0.331 µM.
“~{N}-[(1~{R})-1-[2-[7- [(1~{R},2~{R},4~{S})- 2-amino-7-azabicyclo [2.2.1]heptane- 7-carbonyl]-5-methoxy- 3-methylimidazo [1,2-a]pyridin-2-yl]-1- (cyclopropylmethyl) pyrrolo[2,3-b]pyridin- 6-ylethyl]-2,2- dimethylcyclopropane- 1-carboxamide [Example 70]”: the IC50 on human PAD4 is 0.0632 µM.

Broadly, the IC50 is the concentration needed to halve the response being measured.
